We go through 5 molecules from patent publication US10869875B2, “Oxysterols and Hedgehog signaling” (MAX BIOPHARMA, INC., priority 2015, dated 2020).

For assay [1], the system named is Hedgehog target gene Gli1. The assay is described as follows: Expression of Hedgehog target gene Gli1 in NIH3T3 cells (quantitative RT-PCR). In kind it is cell-based. The note with it: for gene expression of the Hedgehog target gene Gli1: in CM, 5 μM and 10 μM; for gene expression of the Hedgehog target gene Gli1 / Hedgehog signaling (Gli1 gene expression) / Gli1 gene expression relative to CM only / Hedgehog signaling (Gli1 gene expression) compared to the control: NIH3T3 cells; for gene expression of the Hedgehog target gene Gli1 / Hedgehog signaling (Gli1 gene expression): FIG. 7; for Hedgehog signaling (Gli1 gene expression): in the absence of CM; for Hedgehog signaling (Gli1 gene expression) compared to the control: without CM. On the procedure: The compounds described herein were tested on cell cultures to assess their effects on Hedgehog target genes PTCH and Gli1. Conditioned medium (CM) was collected from CAPAN-1 human pancreatic tumor cells grown to confluence in DMEM containing 10%0/fetal bovine serium (FBS) and contains Hh proteins that activate the Hh pathway in cells receiving the CM. After 7 days of incubation of confluent cells with the described medium, CM was collected, spun for 5 minutes at 1800 rpm to remove dead cells and debris, and then frozen at −80° C. For treating cells, CM was thawed and diluted 1:2 to 1:6 with DMEM containing 5% FBS. NIH3T3 cells, HepG2 and SUFU−/−MEF cells were cultured in 12-well plates with DMEM containing 10% FBS. The cells were then treated with DMEM containing 5% FBS or CM in the presence or absence of the compounds prepared in DMSO when they reach confluence. Quantitative RT-PCR was then performed according to the following approach. After 72 to 96 hours of the treatments, the cells were lysed and subjected to RNA extraction with RNease Plus Min kit (Qiagen). A portion of RNA from each well was subjected to Reverse Transcription (RT) using iScript Reverse Transcription Supermix (BioRad). QPCR was performed to test the expression of Hh target genes PTCH and Gli1 using IQ SYBR Green Supermix (BioRad).

Assay [2] deals with connective tissue growth factor (CTGF). The assay is described as follows: TGFβ1 induced expression of CTGF in NIH3T3 cells (Q-RT-PCR). In kind it is cell-based. Conditions: 10 uM, recombinant human TGFβ1 at 20 ng/ml, 48 hours, FIG. 8. Here is the method:
NIH3T3 cells were treated with recombinant human TGFβ1 at 20 ng/ml in the absence or presence of compound 21 at 10 uM. After 48 hours, RNA was extracted and analyzed by Q-RT-PCR for the expression of connective tissue growth factor (CTGF), a tumorigenic gene.

Setting [3] is: 10 μM, in the presence of CM, FIG. 6, result in words.

The structures appear in SMILES notation.

As for `C[C@]12CC[C@H]3[C@@H](CC=C4C[C@@H](O)CC[C@@]43C)[C@@H]1CC[C@@H]2[C@@](C)(O)CCc1cccnc1` [Oxy43, reference compound], in assay [1], the “gene expression of the Hedgehog target gene Gli1” value was “greatly increased” and the “Hedgehog signaling (Gli1 gene expression)” value is on record as “stimulated Hedgehog signaling”.

`C[C@]12CC[C@H]3[C@@H](CC=C4C[C@@H](O)CC[C@@]43C)[C@@H]1CC[C@@H]2[C@@](C)(O)CCc1ccc(F)cc1` [Oxy45, reference compound]: the “Gli1 gene expression relative to CM only” value is “more than 2 fold” in assay [1] (5 μM, in the presence of conditioned medium (CM), FIG. 6) and “more than 2 fold” in assay [1] (10 μM, in the presence of conditioned medium (CM), FIG. 6). For the same molecule, the “Hedgehog signaling (Gli1 gene expression) compared to the control” value (“Hedgehog signaling … compared to the control” below) in assay [1] (10 μM, FIG. 6) is given as “stimulated Hedgehog signaling”.

On to `C[C@]12CC[C@H]3[C@@H](CC=C4C[C@@H](O)CC[C@@]43C)[C@@H]1CC[C@@H]2[C@](C)(O)CCc1ccc(F)cc1` [compound 4, (3S,8S,9S,10R,13S,14S,17S)-17-((R)-4-(4-fluorophenyl)-2-hydroxybutan-2-yl)-10,13-dimethyl-2,3,4,7,89,10,11,12,13,14,15,16,17-tetradecahydro-1H-cyclopenta[a]phenanthren-3-ol], for which, in assay [1] (setting [3]), the “Gli1 gene expression relative to CM only” value was “greatly decreased”. For the same molecule, the “Hedgehog signaling … compared to the control” value in assay [1] (10 μM, FIG. 6) is “did not show this effect”.

Consider `C[C@]12CC[C@H](O)C[C@@H]1CC[C@@H]1[C@@H]2CC[C@@]2(C)[C@H]1CC[C@@H]2[C@](C)(O)CCc1ccc(F)cc1` [compound 6, (3S,5S,8R,9S,10S,13S,14S,17S)-17-((R)-4-(4-fluorophenyl)-2-hydroxybutan-2-yl)-10,13-dimethylhexadecahydro-1H-cyclopenta[a]phenanthren-3-ol], for which the “Gli1 gene expression relative to CM only” value is “greatly decreased” in assay [1] (5 μM, in the presence of CM, FIG. 6, result in words) and “greatly decreased” in assay [1] (setting [3]). Further, the “Hedgehog signaling … compared to the control” value in assay [1] (10 μM, FIG. 6) was “did not show this effect”. Moreover, in assay [1] (comparison with compound 4 (C5-C6 double bond, C20 R-stereochemistry), FIG. 1), the “inhibition of Gli1 expression vs. compound 4” value is listed as “increased”. In addition, in assay [1] (comparison with compound 18 (C20 S-stereochemistry, C5-C6 single bond), FIGS. 1 and 3), the “inhibition of Gli1 expression vs. compound 18” value is given as “increased”.

As for `C[C@]12CC[C@H]3[C@@H](CC=C4C[C@@H](O)CC[C@@]43C)[C@@H]1CC[C@@H]2[C@](C)(O)CCc1cccnc1` [compound 21, (3S,8S,9S,10R,13S,14S,17S)-17-((R)-2-hydroxy-4-(pyridin-3-yl)butan-2-yl)-10,13-dimethyl-2,3,4,7,8,9,10,11,12,13,14,15,16,17-tetradecahydro-1H-cyclopenta[a]phenanthren-3-ol], the “TGFβ1 induced expression of CTGF” value in assay [2] was “inhibited”. Besides, in assay [1], the “gene expression of the Hedgehog target gene Gli1” value is listed as “decreased” and the “Hedgehog signaling (Gli1 gene expression)” value is “did not”.
